Results from patent publication US10494380B2, “Nitrogen-containing tricyclic derivatives having HIV replication inhibitory activity” (priority 2015, dated 2019).
pEC50, pIC50: −log10 of the molar value. Where two headings read alike, the source gives them in different places.

Columns and labels:
HIV (HTLV-IIIB strain) = experiment: HIV replication inhibition assay (Test Example 1; MT-4 cells, MTT); type: cell-based; settings: MT-4 cells, MTT; for EC90: read-out: EC90; for pEC50: read-out: EC50
Protocol: HIV (HTLV-IIIB strain) persistent infected human T cell strain Molt-4 clone8 was cultured in RPMI-1640 medium supplemented with 10% fetal bovine serum and the supernatant was filtered, then the virus titer was measured and stored at −80° C. Each anti-human immunodeficiency virus active substance was diluted with the above culture medium to the designated concentration, which was dispensed into 96-well microtiter plate by 50 μL. Next, 100 μL of MT-4 cell suspension (2.5×10^4 cells) was dispensed into each well, then 50 μl of the above HIV-containing supernatant diluted with the above culture medium was added thereto (60 pfu (plaque forming unit)).
Cell mixture was cultured at 37° C. in CO2 incubator for four days, then 30 μL of MTT (3-(4,5-dimethylthiazole-2-yl)-2,5-diphenyltetrazolyum bromide) reagent (5 mg/mL in PBS) was added to all wells followed by incubation for 1 hour. In this step, MTT was reduced to insoluble formazan in living cells. To elute generated formazan 150 μL of the culture supernatant was removed from all wells, then 150 μL of cell lysis solution (10% Triton X-100 and 0.4% (v/v)-HCl containing isopropanol) was added thereto, followed by shaking with a plate mixer. The formazan was measured with micro plate reader at OD: 560 nm and 690 nm (reference wavelength) and the result was compared with the reference wells. EC50 and EC90 mean the compound concentration at which cytotoxicity caused by virus infection is inhibited 50% and 90%, respectively.

[1] = tested on: T125A mutant virus (HIV-1 NL-432 recombinant molecular clone, IN gene); experiment: HIV replication inhibition assay against integrase 124/125 mutant virus (Test Example 2); type: cell-based
Summary of the method: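 EC50 is the compound concentration blocking half of virus-induced cell death, measured by MTT (OD 560 nm, 690 nm reference) after 4 days at 37 °C. Integrase 124/125 mutant NL-432 virus from transfected 293T cells (60 pfu) was added to 2.5×10^4 MT-4 cells with compound.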

HIV = type: cell-based; settings: EC50 in the presence of human serum (25%) versus without human serum, MT-4 cells
Summary of the method: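 HIV-infected MT-4 cells (3×10^4/well, infected 1 h at 37° C) are grown 4 days with compound that was first mixed 1 h with human serum or with medium only. Potency shift is the EC50 with serum divided by the EC50 without serum.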

CYP3A4 = CYP3A4 (Homo sapiens (Human), UniProt P08684); experiment: CYP3A4 (MDZ) MBI test (Test Example 6); settings: pooled human liver microsomes, midazolam 1-hydroxylation, preincubation 0 or 30 min
CYP3A4, sequence (P08684 whole entry): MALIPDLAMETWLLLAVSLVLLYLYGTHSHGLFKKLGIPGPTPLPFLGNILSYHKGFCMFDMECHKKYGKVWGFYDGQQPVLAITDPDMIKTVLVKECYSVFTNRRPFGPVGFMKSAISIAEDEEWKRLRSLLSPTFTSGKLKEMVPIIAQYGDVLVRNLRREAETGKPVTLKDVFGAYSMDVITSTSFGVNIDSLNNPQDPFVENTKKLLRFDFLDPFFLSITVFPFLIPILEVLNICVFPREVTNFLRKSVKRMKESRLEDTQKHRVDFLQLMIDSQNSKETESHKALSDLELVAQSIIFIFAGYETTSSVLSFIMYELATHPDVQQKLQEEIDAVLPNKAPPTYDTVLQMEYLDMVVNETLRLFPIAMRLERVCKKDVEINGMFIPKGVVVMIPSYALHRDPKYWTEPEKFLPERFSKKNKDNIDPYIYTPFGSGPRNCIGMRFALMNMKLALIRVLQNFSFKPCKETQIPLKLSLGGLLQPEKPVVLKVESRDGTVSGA

CYP2C9 = CYP2C9 (Homo sapiens (Human), UniProt P11712); experiment: CYP inhibition assay, tolbutamide methyl-hydroxylation (Test Example 4); type: in vitro ADME; settings: pooled human hepatic microsome, 100 μmol/L tolbutamide, 15 minutes, 37° C.
CYP2C9, sequence (P11712 whole entry): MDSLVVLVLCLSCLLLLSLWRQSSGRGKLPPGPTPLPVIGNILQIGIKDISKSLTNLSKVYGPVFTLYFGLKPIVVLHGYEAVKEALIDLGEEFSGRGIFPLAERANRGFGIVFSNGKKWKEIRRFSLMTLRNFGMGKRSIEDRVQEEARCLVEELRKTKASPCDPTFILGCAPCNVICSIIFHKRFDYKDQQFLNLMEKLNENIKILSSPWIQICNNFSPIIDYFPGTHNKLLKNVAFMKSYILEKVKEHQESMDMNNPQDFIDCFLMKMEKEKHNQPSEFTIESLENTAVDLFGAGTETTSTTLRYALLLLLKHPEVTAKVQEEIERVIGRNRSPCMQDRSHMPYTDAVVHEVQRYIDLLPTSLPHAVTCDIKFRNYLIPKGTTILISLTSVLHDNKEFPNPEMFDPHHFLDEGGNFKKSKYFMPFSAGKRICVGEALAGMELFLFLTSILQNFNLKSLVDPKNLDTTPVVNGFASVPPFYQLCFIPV
Protocol: Using commercially available pooled human hepatic microsome, and employing, as markers, 7-ethoxyresorufin O-deethylation (CYP1A2), tolbutamide methyl-hydroxylation (CYP2C9), mephenytoin 4′-hydroxylation (CYP2C19), dextromethorphan O-demethylation (CYP2D6), and terfenadine hydroxylation (CYP3A4) as typical substrate metabolism reactions of human main five CYP enzyme forms (CYP1A2, 2C9, 2C19, 2D6, 3A4) an inhibitory degree of each metabolite production amount by a test compound was assessed.
The reaction conditions were as follows: substrate, 0.5 μmol/L ethoxyresorufin (CYP1A2), 100 μmol/L tolbutamide (CYP2C9), 50 μmol/L S-mephenytoin (CYP2C19), 5 μmol/L dextromethorphan (CYP2D6), 1 μmol/L terfenedine (CYP3A4); reaction time, 15 minutes; reaction temperature, 37° C.; enzyme, pooled human hepatic microsome 0.2 mg protein/mL; test drug concentration, 1, 5, 10, 20 μmol/L (four points).
Each five kinds of substrates, human hepatic microsome, and a test drug in 50 mmol/L Hepes buffer as a reaction solution was added to a 96-well plate as the composition ad described above, NADPH, as a coenzyme was added to initiate metabolism reactions as markers and, after the incubation at 37° C. for 15 minutes, a methanol/acetonitrile=1/1 (V/V) solution was added to stop the reaction. After the centrifugation at 3000 rpm for 15 minutes, resorufin (CYP1A2 metabolite) in the supernatant was quantified by a fluorescent multilabel counter and tolbutamide hydroxide (CYP2C9 metabolite), mephenytoin 4′ hydroxide (CYP2C19 metabolite), dextrorphan (CYP2D6 metabolite), and terfenadine alcohol (CYP3A4 metabolite) were quantified by LC/MS/MS.

[2] = tested on: sheep red blood cells (RBC); experiment: Photohemolysis test (Test Example 13); type: cell-based; settings: 0.0008 to 0.1 w/v %, 10 J/cm2 UV-irradiation (290-400 nm)
Text: Aliquots of sheep red blood cells (RBC) suspension prepared with medium to make a 2.5 v/v % concentration are dispensed into microplates. The compound of the present invention was desolved with a vehicle to make target concentrations and then these solutions were immediately added (in concentrations of 0.0008 to 0.1 w/v %) into the microplates. The mixtures on the microplates were exposed to 10 J/cm2 of UV-irradiation (UV-A and UV-B, 290-400 nm) with a GL20SE lamp (SANKYO DENKI) and a FL20S-BLB lamp (Panasonic). After the UV-irradiation, the mixtures were centrifuged. Aliquots of supernatant were transferred to a microplate. Absorbance of the supernatants was measured at 540 nm and 630 nm for judgement of the potential of phototoxicity. In the study, two endpoints were evaluated in biomembrane impairment (% of photohemolysis index; PI) and hyperoxidation of lipid membrane (methemoglobin formation; met-Hb) with the absorbance at 540 nm and 630 nm, respectively. PI and met-Hb were assessed based on the negative criteria (−), PI<10% and changes in absorbance at 630 nm<0.05, respectively. All else was judged as positive (+).

[3] = HIV (HTLV-IIIB strain), four days
[4] = HIV HTLV-IIIB strain, cultured four days
[5] = T125A mutant virus (HIV-1 NL-432 IN gene), MT-4 cells, MTT, read-out: EC50 against T125A mutant virus
[6] = Human immunodeficiency virus 1, MT4, 96 h, HIV (HTLV-IIIB strain), four days
[7] = Human immunodeficiency virus 1, MT4, read-out: EC50 against T125A mutant virus, T125A mutant virus (HIV-1 NL-432 IN gene), MT-4 cells, MTT

Row | Structure (SMILES) | EC90 (HIV (HTLV-IIIB strain); [3]) [nM] | pEC50 (HIV (HTLV-IIIB strain); [4]) | pEC50 [1, 5] | Potency shift value (HIV) | CYP3A4 (MDZ) MBI, shifted IC (CYP3A4) | pEC50 (HIV (HTLV-IIIB strain); [3]) | pIC50 (CYP2C9) | Photohemolysis test, potential of phototoxicity (PI and met-Hb) [2] | pEC50 (HIV (HTLV-IIIB strain); [6]) | EC90 (HIV (HTLV-IIIB strain); [6]) [nM] | pEC50 [1, 7]
1 | Cc1ccc(-c2c([C@H](OC(C)(C)C)C(=O)O)c(Cl)c3c4c2cc(C)n4CCN3C)cc1 [Compound I-187] | 2.2 | 9.00 | 8.32 | 11 | (−) (When a shifted IC was 1.0 or less, this was defined as negative) | – | – | – | – | – | –
2 | Cc1ccc(-c2c([C@H](OC(C)(C)C)C(=O)O)c(C)c3c4c2cc(C)n4CCN3c2ncc(CN(C)C)cn2)cc1 [Compound I-304] | – | – | 8.14 | 6.8 | (−) (When a shifted IC was 1.0 or less, this was defined as negative) | 8.39 | < 4.70 | (−) (negative criteria (−), PI<10% and changes in absorbance at 630 nm<0.05, respectively) | – | – | –
3 | Cc1nc(N2CCn3c(C)cc4c(-c5ccc(Cl)cc5)c([C@H](OC(C)(C)C)C(=O)O)c(C)c2c43)no1 [Compound I-176] | 5.6 | 8.64 | 8.34 | 12 | (−) (When a shifted IC was 1.0 or less, this was defined as negative) | – | – | (−) (negative criteria (−), PI<10% and changes in absorbance at 630 nm<0.05, respectively) | – | – | –
4 | Cc1c([C@H](OC(C)(C)C)C(=O)O)c(-c2ccc(Cl)cc2)c2cc(C)n3c2c1N(c1ncccn1)CC3 [Compound I-085] | 0.58 | – | 8.43 | 22 | – | 9.27 | – | (−) (negative criteria (−), PI<10% and changes in absorbance at 630 nm<0.05, respectively) | – | – | –
5 | Cc1c([C@H](OC(C)(C)C)C(=O)O)c(-c2ccc(Cl)cc2)c2cc(C)n3c2c1N(CCN(C)C)[C@H](C)C3 [Compound I-112] | – | – | – | 3.5 | – | – | < 4.70 | (−) (negative criteria (−), PI<10% and changes in absorbance at 630 nm<0.05, respectively) | 8.31 | 11 | 7.74
6 | Cc1c([C@H](OC(C)(C)C)C(=O)O)c(-c2ccc(Cl)cc2)c2cc(C)n3c2c1N(c1ncc2ccccc2n1)CC3 [Compound I-157] | – | – | – | 12 | (−) (When a shifted IC was 1.0 or less, this was defined as negative) | – | < 4.70 | – | – | – | 7.92
7 | Cc1ccc(-c2c([C@H](OC(C)(C)C)C(=O)O)c(C)c3c4c2cc(C)n4CCN3C)cc1 [Compound I-001] | – | – | – | 13 | – | – | – | (−) (negative criteria (−), PI<10% and changes in absorbance at 630 nm<0.05, respectively) | 9.16 | 1.1 | 8.33
8 | CCOc1cnc(N2CCn3c(C)cc4c(-c5ccc(C)cc5)c([C@H](OC(C)(C)C)C(=O)O)c(C)c2c43)nc1 [Compound I-197] | – | – | – | 32 | – | – | < 4.70 | (−) (negative criteria (−), PI<10% and changes in absorbance at 630 nm<0.05, respectively) | 8.89 | 2.2 | –
9 | COCCN1CCn2c(C)cc3c(-c4ccc(C)cc4)c([C@H](OC(C)(C)C)C(=O)O)c(C)c1c32 [Compound I-026] | – | – | – | 13 | – | – | < 4.70 | – | 9.00 | 1.6 | 7.89
10 | Cc1ccc(-c2c([C@H](OC(C)(C)C)C(=O)O)c(C)c3c4c2cc(C)n4CCN3S(C)(=O)=O)cc1 [Compound I-003] | – | – | – | 14 | (−) (When a shifted IC was 1.0 or less, this was defined as negative) | – | – | (−) (negative criteria (−), PI<10% and changes in absorbance at 630 nm<0.05, respectively) | 8.89 | 1.7 | 8.05
11 | Cc1c([C@H](OC(C)(C)C)C(=O)O)c(-c2ccc(F)cc2)c2cc(C)n3c2c1N(C)CC3 [Compound I-048] | – | – | – | 9.2 | – | – | < 4.70 | (−) (negative criteria (−), PI<10% and changes in absorbance at 630 nm<0.05, respectively) | 8.92 | 1.5 | 7.96
12 | Cc1c([C@H](OC(C)(C)C)C(=O)O)c(-c2ccc(Cl)cc2)c2cc(C)n3c2c1N(C)CC3 [Compound I-012] | – | – | – | 13 | – | – | – | (−) (negative criteria (−), PI<10% and changes in absorbance at 630 nm<0.05, respectively) | 9.11 | 1.1 | 8.42
13 | Cc1c([C@H](OC(C)(C)C)C(=O)O)c(-c2ccc(Cl)cc2)c2cc(C)n3c2c1N(S(C)(=O)=O)CC3 [Compound I-019] | 1.6 | – | 8.18 | 16 | (−) (When a shifted IC was 1.0 or less, this was defined as negative) | 8.92 | – | – | – | – | –
14 | CC(=O)N1CCn2c(C)cc3c(-c4ccc(Cl)cc4)c([C@H](OC(C)(C)C)C(=O)O)c(C)c1c32 [Compound I-025] | – | – | – | 11 | – | – | – | – | 8.64 | 3.1 | 7.89
15 | Cc1c([C@H](OC(C)(C)C)C(=O)O)c(-c2ccc(Cl)cc2)c2cc(C)n3c2c1NC(=O)C3 [Compound I-016] | – | – | – | 8.6 | – | – | – | – | 8.06 | 13 | 7.38
16 | COCCCOc1cnc(N2CCn3c(C)cc4c(-c5ccc(Cl)cc5)c([C@H](OC(C)(C)C)C(=O)O)c(C)c2c43)nc1 [Compound I-255] | – | – | – | 22 | – | – | – | – | 8.80 | 2.4 | 8.29
